In ChEMBL document CHEMBL1201862, “PubChem BioAssay data set” (2004):
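48-hour exposure; five concentrations; linearly interpolated endpoints. At the GI50, growth is halved.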 The source made the active and inactive calls. No stated cut-off is given here; in the data, active = GI50 up to about 1.1 µM and inactive = higher.

Key:
Test in all cases: DTP human tumour cell line panel, 48 h
[1] = system: HCC 2998
[2] = system: DU-145
[3] = system: SF-295
[4] = system: A549
[5] = system: HL-60
[6] = system: T47D
[7] = system: BT-549
[8] = system: SK-MEL-2
[9] = system: Malme-3M
[10] = system: SK-MEL-5
[11] = system: EKVX
[12] = system: UACC-257
[13] = system: PC-3
[14] = system: IGROV-1
[15] = system: NCI-H460
[16] = system: SK-MEL-28
[17] = system: OVCAR-3
[18] = system: K562
[19] = system: DLD-1

Compound | GI50 [1] | GI50 [2] | GI50 [3] | GI50 [4] | GI50 [5] | GI50 [6] | GI50 [7] | GI50 [8] | GI50 [9] | GI50 [10] | GI50 [11] | GI50 [12] | GI50 [13] | GI50 [14] | GI50 [15] | GI50 [16] | GI50 [17] | GI50 [18] | GI50 [19]
CC(=O)OCC1OC(OC2CC3C(C)(C)C(O)CC[C@]3(C)C3CCC45CC4(CCC5[C@@H](C)CC(O)C(O)C(C)(C)O)[C@]23C)C(O)C(O)C1O (stereo partly drawn) | > 10 µM (inactive) | > 10 µM (inactive) | > 10 µM (inactive) | > 10 µM (inactive) | > 10 µM (inactive) | > 10 µM (inactive) | > 10 µM (inactive) | > 10 µM (inactive) | > 10 µM (inactive) | > 10 µM (inactive) | > 10 µM (inactive) | > 10 µM (inactive) | > 10 µM (inactive) | > 10 µM (inactive) | > 10 µM (inactive) | > 10 µM (inactive) | > 10 µM (inactive) | > 10 µM (inactive) | –
CC(N)/C(N)=N/O (stereo not drawn) | > 100 µM (inactive) | > 100 µM (inactive) | > 100 µM (inactive) | > 100 µM (inactive) | > 100 µM (inactive) | > 100 µM (inactive) | > 100 µM (inactive) | > 100 µM (inactive) | > 100 µM (inactive) | > 100 µM (inactive) | > 100 µM (inactive) | > 100 µM (inactive) | > 100 µM (inactive) | > 100 µM (inactive) | > 100 µM (inactive) | > 100 µM (inactive) | > 100 µM (inactive) | > 100 µM (inactive) | –
COc1ccc2c(C)cc(N/N=C/c3ccc(C)s3)nc2c1 | 6.11 µM (inactive) | 6.49 µM (inactive) | 9.62 µM (inactive) | 7.91 µM (inactive) | 7.05 µM (inactive) | 6.53 µM (inactive) | 24.3 µM (inactive) | 19.1 µM (inactive) | 17.7 µM (inactive) | 3.43 µM (inactive) | 5.4 µM (inactive) | 11 µM (inactive) | 14.1 µM (inactive) | 7.82 µM (inactive) | 5.27 µM (inactive) | 24.7 µM (inactive) | 2.94 µM (inactive) | 3.61 µM (inactive) | –
CC(=O)OCC1OC(NC(=S)Nn2c(-c3ccccc3)nc3ccccc3c2=O)C(OC(C)=O)C(OC(C)=O)C1OC(C)=O (stereo not drawn) | 97.9 µM (inactive) | > 100 µM (inactive) | > 100 µM (inactive) | > 100 µM (inactive) | 70.8 µM (inactive) | 19.4 µM (inactive) | > 100 µM (inactive) | 25.9 µM (inactive) | 52.8 µM (inactive) | 35.8 µM (inactive) | > 100 µM (inactive) | > 100 µM (inactive) | > 100 µM (inactive) | 33.8 µM (inactive) | > 100 µM (inactive) | 90.2 µM (inactive) | 30.8 µM (inactive) | > 100 µM (inactive) | –
Cc1ccc(-c2cc(N)n(-c3nc4c([nH]3)c(=O)n(C)c(=O)n4C)n2)cc1 | 7.67 µM (inactive) | 6.35 µM (inactive) | 2.69 µM (inactive) | 4.68 µM (inactive) | 5.04 µM (inactive) | 4.76 µM (inactive) | 6.95 µM (inactive) | 6.64 µM (inactive) | 3.86 µM (inactive) | 3.36 µM (inactive) | 3.09 µM (inactive) | 15.3 µM (inactive) | 16.3 µM (inactive) | 2.2 µM (inactive) | 1.71 µM (inactive) | 6.14 µM (inactive) | 4.55 µM (inactive) | 4.03 µM (inactive) | –
CCOC(=O)NC(C(=O)OCC)(N1CCN(c2cc3c(cc2F)c(=O)c(C(=O)O)cn3CC)CC1)C(F)(F)F (stereo not drawn) | > 100 µM (inactive) | > 100 µM (inactive) | > 100 µM (inactive) | > 100 µM (inactive) | > 100 µM (inactive) | > 100 µM (inactive) | > 100 µM (inactive) | > 100 µM (inactive) | > 100 µM (inactive) | > 100 µM (inactive) | 13.2 µM (inactive) | > 100 µM (inactive) | > 100 µM (inactive) | > 100 µM (inactive) | > 100 µM (inactive) | 0.197 µM (active) | > 100 µM (inactive) | > 100 µM (inactive) | –
CC(C)c1cc(C(C)C)c(S(=O)(=O)N=[N+]=[N-])c(C(C)C)c1 | > 100 µM (inactive) | – | – | > 100 µM (inactive) | 22.9 µM (inactive) | – | – | – | > 100 µM (inactive) | > 100 µM (inactive) | – | > 100 µM (inactive) | – | > 100 µM (inactive) | > 100 µM (inactive) | > 100 µM (inactive) | > 100 µM (inactive) | 87.5 µM (inactive) | > 100 µM (inactive)
Cl/C(=C\C=N\c1ccc(I)cc1)c1ccc2ccccc2c1 | 0.0322 µM (active) | 21.4 µM (inactive) | 19.1 µM (inactive) | 33.3 µM (inactive) | 12.9 µM (inactive) | 10.4 µM (inactive) | 16.9 µM (inactive) | 18.9 µM (inactive) | 20.6 µM (inactive) | 18 µM (inactive) | 36.2 µM (inactive) | 15.4 µM (inactive) | 25.3 µM (inactive) | 17.9 µM (inactive) | 24.2 µM (inactive) | 21.4 µM (inactive) | 15 µM (inactive) | 6.14 µM (inactive) | –
